Holding throughout (format): functional
For one test, the system named is HT-29. Briefly: Growth inhibition of human HT-29 cells after 72 hrs by sulforhodamine B assay. As to conditions: HT-29, 72 h. (Sulforhodamine B stains cellular protein and so reports cell mass.)
A further test has as its system MDA-MB-231. Briefly: Growth inhibition of human MDA-MB-231 cells after 72 hrs by sulforhodamine B assay. The following applies: MDA-MB-231, 72 h.
The subject of another test is A549. Briefly: Growth inhibition of human A549 cells after 72 hrs by sulforhodamine B assay. As to conditions: A549, 72 h.

The term GI50 denotes the concentration at which growth is held to half of that of the control. A low value points to greater sensitivity of the cells.

Regarding `CCO[C@H](C(N)=O)[C@@H]1NC(=O)[C@H](CCC(N)=O)N(C)C(=O)[C@H](CC(C)C)NC(=O)[C@@H](CCCCN)NC(=O)[C@@H]([C@@H](C)O)NC(=O)[C@H](NC(=O)[C@@H](NC(=O)[C@H](O)[C@H](O)[C@H](CCC(N)=O)NC(=O)[C@@H](CC(=O)O)NC(=O)[C@H](C)[C@H](O)[C@H](C)CC(C)C)[C@@H](C)[C@@H](C)C(N)=O)[C@@H]([C@H](C)C(C)C)OC(=O)[C@@H]2CCCCN2C(=O)[C@@H](CC(=O)O)NC1=O`, the GI50 with HT-29 worked out at 1120 nM; with MDA-MB-231 it was 700 nM; in the test with A549 it was 600 nM.
Consider `CCO[C@H](C(N)=O)[C@@H]1NC(=O)[C@H](CCC(N)=O)N(C)C(=O)[C@H](CC(C)C)NC(=O)[C@@H](CCCCN)NC(=O)[C@@H]([C@@H](C)O)NC(=O)[C@H](NC(=O)[C@@H](NC(=O)[C@H](O)[C@H](O)[C@H](CCC(N)=O)NC(=O)[C@H](NC(=O)[C@H](C)[C@H](O)[C@H](C)CC(C)C)[C@H](O)C(=O)O)[C@@H](C)[C@@H](C)C(N)=O)[C@@H]([C@H](C)C(C)C)OC(=O)[C@@H]2CCCCN2C(=O)[C@@H](CC(=O)O)NC1=O`, for which the GI50 was found to be 10 nM in the test on HT-29, 20 nM in the test with MDA-MB-231 and 40 nM in the test with A549.

Values taken from ChEMBL document CHEMBL3108687, “Isolation and structures of pipecolidepsins A and B, cytotoxic cyclic depsipeptides from the Madagascan sponge Homophymia lamellosa” (2014).
